Results from article PMC11876601 (Molecular Systems Biology, 2025).
Read-outs that look alike come from different tables or passages of the source.

Columns and labels:
Assay in all cases: cells
Colo-357 [1] = system: Colo-357; parameters: ATPlite luminescence viability of PDAC cell lines, 11-dose single-agent curves, 4-parameter fit; conditions: Homo sapiens, COLO357, 72 h, read-out: EC50 [nM]
Summary of the method: (§1)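 cells (1000 to 5000 per well) seeded 24 h before drug addition in a combination screen at 0.2% final DMSO. Controls were drug-free wells (negative) and 5 µM staurosporine (positive).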

FAMPAC [2] = system: FAMPAC; parameters: ATPlite luminescence viability of PDAC cell lines, 11-dose single-agent curves, 4-parameter fit; conditions: 72 h, read-out: EC50 [nM]
Summary of the method: as §1

HPDE [3] = system: HPDE; parameters: ATPlite luminescence viability of PDAC cell lines, 11-dose single-agent curves, 4-parameter fit; conditions: HPDE, 72 h, read-out: EC50 [nM]
Summary of the method: as §1

MiaPaCa-2 [4] = system: MiaPaCa-2; parameters: ATPlite luminescence viability of PDAC cell lines, 11-dose single-agent curves, 4-parameter fit; conditions: Homo sapiens, MIA PaCa-2, 72 h, read-out: EC50 [nM]
Summary of the method: as §1

PANC-1 [5] = system: PANC-1; parameters: ATPlite luminescence viability of PDAC cell lines, 11-dose single-agent curves, 4-parameter fit; conditions: Homo sapiens, PANC-1, 72 h, read-out: EC50 [nM]
Summary of the method: as §1

PSN-1 [6] = system: PSN-1; parameters: ATPlite luminescence viability of PDAC cell lines, 11-dose single-agent curves, 4-parameter fit; conditions: Homo sapiens, PSN1, 72 h, read-out: EC50 [nM]
Summary of the method: as §1

Suit2-07 [7] = system: Suit2-07; parameters: ATPlite luminescence viability of PDAC cell lines, 11-dose single-agent curves, 4-parameter fit; conditions: 72 h, read-out: EC50 [nM]
Summary of the method: as §1

AsPC-1 [8] = system: AsPC-1; parameters: Viability of PDAC cell lines, ATPlite luminescence, 11-dose single-agent curve fit; conditions: Homo sapiens, ASPC1, 72 h, read-out: EC50 [nM]
Summary of the method: (§2)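 cells (1000 to 5000 per well) seeded 24 h before drug addition in a screen at 0.2% final DMSO. Controls were drug-free wells (negative) and 5 µM staurosporine (positive).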

BxPC-3 [9] = system: BxPC-3; parameters: Viability of PDAC cell lines, ATPlite luminescence, 11-dose single-agent curve fit; conditions: Homo sapiens, BXPC-3, 72 h, read-out: EC50 [nM]
Summary of the method: as §2

Capan-1 [10] = system: Capan-1; parameters: Viability of PDAC cell lines, ATPlite luminescence, 11-dose single-agent curve fit; conditions: Homo sapiens, CAPAN-1, 72 h, read-out: EC50 [nM]
Summary of the method: as §2

Dan-G [11] = system: Dan-G; parameters: Viability of PDAC cell lines, ATPlite luminescence, 11-dose single-agent curve fit; conditions: 72 h, read-out: EC50 [nM]
Summary of the method: as §2

HuP-T4 = system: HuP-T4; parameters: Viability of PDAC cell lines, ATPlite luminescence, 11-dose single-agent curve fit; conditions: Homo sapiens, HuP-T4, 72 h, read-out: EC50 [nM]
Summary of the method: as §2

PaTu-8988-T [12] = system: PaTu-8988-T; parameters: Viability of PDAC cell lines, ATPlite luminescence, 11-dose single-agent curve fit; conditions: Homo sapiens, PaTu 8988t, 72 h, read-out: EC50 [nM]
Summary of the method: as §2

Capan-1 [13] = system: Capan-1; parameters: ATPlite luminescence viability of PDAC cell lines, 11-dose single-agent curves, 4-parameter fit; conditions: Homo sapiens, CAPAN-1, 72 h, read-out: EC50 [nM]
Summary of the method: as §1

Dan-G [14] = system: Dan-G; parameters: ATPlite luminescence viability of PDAC cell lines, 11-dose single-agent curves, 4-parameter fit; conditions: 72 h, read-out: EC50 [nM]
Summary of the method: as §1

HPDE [15] = system: HPDE; parameters: Viability of PDAC cell lines, ATPlite luminescence, 11-dose single-agent curve fit; conditions: HPDE, 72 h, read-out: EC50 [nM]
Summary of the method: as §2

PANC-1 [16] = system: PANC-1; parameters: Viability of PDAC cell lines, ATPlite luminescence, 11-dose single-agent curve fit; conditions: Homo sapiens, PANC-1, 72 h, read-out: EC50 [nM]
Summary of the method: as §2

BxPC-3 [17] = system: BxPC-3; parameters: ATPlite luminescence viability of PDAC cell lines, 11-dose single-agent curves, 4-parameter fit; conditions: Homo sapiens, BXPC-3, 72 h, read-out: EC50 [nM]
Summary of the method: as §1

PaTu-8988-T [18] = system: PaTu-8988-T; parameters: ATPlite luminescence viability of PDAC cell lines, 11-dose single-agent curves, 4-parameter fit; conditions: Homo sapiens, PaTu 8988t, 72 h, read-out: EC50 [nM]
Summary of the method: as §1

Suit2-07 [19] = system: Suit2-07; parameters: Viability of PDAC cell lines, ATPlite luminescence, 11-dose single-agent curve fit; conditions: 72 h, read-out: EC50 [nM]
Summary of the method: as §2

Colo-357 [20] = system: Colo-357; parameters: Viability of PDAC cell lines, ATPlite luminescence, 11-dose single-agent curve fit; conditions: Homo sapiens, COLO357, 72 h, read-out: EC50 [nM]
Summary of the method: as §2

FAMPAC [21] = system: FAMPAC; parameters: Viability of PDAC cell lines, ATPlite luminescence, 11-dose single-agent curve fit; conditions: 72 h, read-out: EC50 [nM]
Summary of the method: as §2

MiaPaCa-2 [22] = system: MiaPaCa-2; parameters: Viability of PDAC cell lines, ATPlite luminescence, 11-dose single-agent curve fit; conditions: Homo sapiens, MIA PaCa-2, 72 h, read-out: EC50 [nM]
Summary of the method: as §2

PSN-1 [23] = system: PSN-1; parameters: Viability of PDAC cell lines, ATPlite luminescence, 11-dose single-agent curve fit; conditions: Homo sapiens, PSN1, 72 h, read-out: EC50 [nM]
Summary of the method: as §2

AsPC-1 [24] = system: AsPC-1; parameters: ATPlite luminescence viability of PDAC cell lines, 11-dose single-agent curves, 4-parameter fit; conditions: Homo sapiens, ASPC1, 72 h, read-out: EC50 [nM]
Summary of the method: as §1

Structure (SMILES)	EC50 (Colo-357 [1]) [nM]	EC50 (FAMPAC [2]) [nM]	EC50 (HPDE [3]) [nM]	EC50 (MiaPaCa-2 [4]) [nM]	EC50 (PSN-1 [6]) [nM]	EC50 (Suit2-07 [7]) [nM]	EC50 (AsPC-1 [8]) [nM]	EC50 (BxPC-3 [9]) [nM]	EC50 (Capan-1 [10]) [nM]	EC50 (Dan-G [11]) [nM]	EC50 (HuP-T4) [nM]	EC50 (PaTu-8988-T [12]) [nM]	EC50 (Capan-1 [13]) [nM]	EC50 (Dan-G [14]) [nM]	EC50 (HPDE [15]) [nM]	EC50 (PANC-1 [16]) [nM]	EC50 (BxPC-3 [17]) [nM]	EC50 (PaTu-8988-T [18]) [nM]	EC50 (Suit2-07 [19]) [nM]	EC50 (Colo-357 [20]) [nM]	other results
CCCCCCCCCCCCCCCCCCOP(=O)([O-])OC1CC[N+](C)(C)CC1 [Perifosine]	> 10000	3030	1280	2990	2340	2140	> 10000	1410	> 10000	> 10000	0.04	9320									EC50 (PANC-1 [5]): 2590 nM
NC(=O)c1cccc2cn(-c3ccc([C@@H]4CCCNC4)cc3)nc12 [Niraparib]	1160	3370		2020	1740	1010	> 10000	1010			10.5	4150	3180	1710	4720	3580					
COc1cc2nccc(Oc3ccc(NC(=O)Nc4cc(C)on4)c(Cl)c3)c2cc1OC [Tivozanib]	6590	> 10000		> 10000	5040		6600				4120		9830	> 10000	> 10000	> 10000	> 10000	> 10000	> 10000		
COc1cc(Nc2ncc3c(n2)-c2ccc(Cl)cc2C(c2c(F)cccc2OC)=NC3)ccc1C(=O)O [Alisertib]	291	68.6		87	846		405				64.4	274	427	914	2700	95.6	848		272		
CNC(=O)c1cc(Oc2ccc(NC(=O)Nc3ccc(Cl)c(C(F)(F)F)c3)cc2)ccn1 [Sorafenib]		> 10000	7960	> 10000	3820	9770	> 10000				10200		8320	7810		7780	10200	> 10000		4370	
O=C(Nc1ccc(OC(F)(F)Cl)cc1)c1cnc(N2CC[C@@H](O)C2)c(-c2cc[nH]n2)c1 [Asciminib]	> 10000						1470	794		7610	3860	1350	3820		4830	4520			3.54		EC50 (FAMPAC [21]): > 10000 nM; EC50 (MiaPaCa-2 [22]): 2770 nM; EC50 (PSN-1 [23]): 1730 nM
COc1cc2/c(=N/c3ccc(Br)cc3F)nc[nH]c2cc1OCC1CCN(C)CC1 [Vandetanib]	6050	> 10000	1520	> 10000		> 10000			> 10000		23.9			> 10000		3860	3600	> 10000			EC50 (AsPC-1 [24]): > 10000 nM; EC50 (PSN-1 [23]): > 10000 nM
CN1CCN(CCOc2cc(OC3CCOCC3)c3c(Nc4c(Cl)ccc5c4OCO5)ncnc3c2)CC1 [Saracatinib]		4910	1430	51.6		1340	4140				> 10000	244	2210	1160		142	863			869	EC50 (PSN-1 [23]): 4260 nM
C=CC(=O)Nc1cccc(Oc2nc(Nc3ccc(N4CCN(C)CC4)cc3)nc3ccsc23)c1 [Olmutinib]		> 10000	3900	5290	7020	7100			> 10000		2230			> 10000		> 10000	5220	> 10000		8230	EC50 (AsPC-1 [24]): 6710 nM
CN(C)CCCOc1ccc(-c2ccc3ncc4c(c3c2)n(C2CCOCC2)c(=O)n4C)cn1 [AZD-0156]	6410	1890	10400	1010	3260	1960			> 10000	4160						> 10000	5990	606			EC50 (AsPC-1 [24]): > 10000 nM
